Results on 7 compounds are retold here after patent US20080234384A1, “BIARYL AND BIHETEROARYL COMPOUNDS USEFUL IN TREATING IRON DISORDERS” (XENON PHARMACEUTICALS INC., priority 2007, published 2008).

One data set has as its target T1, DMT1 (Homo sapiens, UniProt P49281).
T1 sequence (P49281 1-568): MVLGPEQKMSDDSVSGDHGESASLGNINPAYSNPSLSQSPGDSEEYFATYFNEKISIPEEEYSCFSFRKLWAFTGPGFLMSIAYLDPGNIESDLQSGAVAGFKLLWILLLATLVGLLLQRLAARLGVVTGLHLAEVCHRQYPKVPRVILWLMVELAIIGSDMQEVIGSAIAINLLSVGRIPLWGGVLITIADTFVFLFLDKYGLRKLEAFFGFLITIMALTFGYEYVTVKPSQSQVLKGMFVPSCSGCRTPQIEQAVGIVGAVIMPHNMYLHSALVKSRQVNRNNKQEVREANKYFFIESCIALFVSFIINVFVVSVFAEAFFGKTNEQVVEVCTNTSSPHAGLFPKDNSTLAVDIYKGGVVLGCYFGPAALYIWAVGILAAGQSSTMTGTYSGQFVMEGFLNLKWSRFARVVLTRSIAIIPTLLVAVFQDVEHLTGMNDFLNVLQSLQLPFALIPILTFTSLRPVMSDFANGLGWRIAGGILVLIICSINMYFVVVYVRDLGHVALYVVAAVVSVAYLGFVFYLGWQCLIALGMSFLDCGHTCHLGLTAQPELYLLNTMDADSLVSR
The data set can be described thus: DMT1 Activity Assay (In Vitro Assay). Format: cell-based. Particulars: read-out: IC50 Activity Level. A digest of the protocol: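 Cell-based Fe2+ uptake assay in DMT1-expressing cells (stable overexpressing lines, or endogenous in intestinal cells/tissue, K562 or […]), cells exposed to 55Fe or 59Fe or loaded with calcein before compound addition. Read-out is radiolabelled iron uptake or calcein fluorescence change; electrophysiology in Xenopus oocytes also described.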

Molecules are shown by their SMILES. Structures can show the parent of a compound that is named as a salt. Where only a bound is given, the exact number is not on record here.

In general, melting point refers to the temperature of the solid-liquid transition. Turning to `N=C(N)SCc1ccccc1C(=O)c1ccc(F)cc1CSC(=N)N` (as salt: hydrobromid) [Example 2.26, 2-(6-(amidinothiomethyl)phenyl)carbonyl-1-(amidinothiomethyl)-5-fluorobenzene dihydrobromide], the melting point is > 250 °C. Consider `N=C(N)SCc1ccccc1C(=O)c1cc(F)ccc1CSC(=N)N` (as salt: hydrobromid) [Example 2.27, 2-(6-(amidinothiomethyl)phenyl)carbonyl-1-(amidinothiomethyl)-4-fluorobenzene dihydrobromide], for which the melting point is > 250 °C. As to `N=C(N)SCc1ccccc1C(=O)c1cc(Cl)ccc1CSC(=N)N` (as salt: hydrobromid) [Example 2.28, 2-(6-(amidinothiomethyl)phenyl)carbonyl-1-(amidinothiomethyl)-4-chlorobenzene dihydrobromide dihydrobromide], the melting point is > 250 °C. On to `N=C(N)SCc1ccccc1C(=O)c1ccc(Cl)cc1CSC(=N)N` (as salt: hydrobromid) [Example 2.29, 2-(6-(amidinothiomethyl)phenyl)carbonyl-1-(amidinothiomethyl)-5-chlorobenzene dihydrobromide], for which the melting point was > 250 °C. Still for that read-out and setting: for `NC(N)=NC(=O)c1ccccc1Sc1ccccc1C(=O)N=C(N)N` [Example 4, 2,2′-thiobis(N-(diaminomethylene)benzamide)] the value was > 220 °C. In general, IC50 refers to the concentration at which inhibition is half-maximal. The compound `N#CN=C(N)CCc1ccccc1Sc1ccccc1CCC(N)=NC#N` [Example 7, 2-(6-(2-(cyanoamidino)ethyl)phenyl)thio-1-(2-(cyanoamidino)ethyl)benzene] came in with a melting point of 188 to 190 °C. At DMT1, the IC50 was ≥ 1000 nM. As for `N#CN=C(N)CCCc1ccccc1Sc1ccccc1CCCC(N)=NC#N` [Example 7.2, 2-(6-(3-(cyanoamidino)propyl)phenyl)thio-1-(3-(cyanoamidino)propyl)benzene], the melting point lay in the range of 155 to 157 °C. Moreover, the IC50 on DMT1 is ≥ 1000 nM.
